Publication PMC10054477, “Design, Synthesis, and Biological Evaluation of Sulfonamide Methoxypyridine Derivatives as Novel PI3K/mTOR Dual Inhibitors” (Pharmaceuticals, 2023)

Key:
MCF-7 cells = assay: CCK-8 cell viability assay, MCF-7; type: cell-based; details: Homo sapiens, MCF7, 72 h, mean (n = 3)
Description: (§1) MCF-7 and HCT-116 cells were purchased from the Meilunbio Biotechnology Co., Ltd. (Dalian, China). Cells were cultured at 37 °C with 5% CO2, using DMEM or RPMI 1640 medium (Meilunbio, Dalian, China) with 10% (v/v) fetal bovine serum (Gibco, San Diego, CA, USA) and 1% (v/v) penicillin and streptomycin (Meilunbio, Dalian, China). CCK-8 assay was used to determine the inhibitory effect in vitro. In short, cells were incubated into 96-well plates at the rate of 5000 cells per well. After 24 h of incubation, 100 μL medium was added, which contained a specific concentration of the test compound. After 72 h, 10 μL CCK-8 regent was added and the plate was incubated at 37 °C, 5% CO2 for 1 h. The optical density of each hole at 450 nm was read by a BioTek TS-800 microplate reader. GraphPad Prism 9.3.1 software was used to calculate the IC50 value.

PI3Kα = target: T1, PI3Kα (Homo sapiens, UniProt P42336); assay: ADP-Glo kinase assay, PI3Kα enzyme inhibition; type: biochemical; details: for inhibition at 0.001 µM: at 1 nM; for IC50: mean (n = 2)
T1 construct: purchased SignalChem P27-122DH
Description: The enzymatic inhibitory assays of all target compounds against PI3Kα were performed with the ADP-Glo assay (Promega, Madison, WI, USA, catalog No. V9102/3). Briefly, compounds were continuously diluted to a certain concentration. […] The mixture was added to a 96-well plate and incubated in a dark place at ambient temperature for 40 min. Then, the kinase reaction was stopped by adding of ADP-Glo reagent and the plate was incubated again at ambient temperature for another 40 min. The kinase detection reagent was added and the signal was collected via PerkinElmer Envision plate reader (PE, Boston, MA, USA).

HCT-116 cells = assay: CCK-8 cell viability assay, HCT-116; type: cell-based; details: Homo sapiens, mean (n = 3)
Description: as §1

T1 sequence (P42336 whole entry): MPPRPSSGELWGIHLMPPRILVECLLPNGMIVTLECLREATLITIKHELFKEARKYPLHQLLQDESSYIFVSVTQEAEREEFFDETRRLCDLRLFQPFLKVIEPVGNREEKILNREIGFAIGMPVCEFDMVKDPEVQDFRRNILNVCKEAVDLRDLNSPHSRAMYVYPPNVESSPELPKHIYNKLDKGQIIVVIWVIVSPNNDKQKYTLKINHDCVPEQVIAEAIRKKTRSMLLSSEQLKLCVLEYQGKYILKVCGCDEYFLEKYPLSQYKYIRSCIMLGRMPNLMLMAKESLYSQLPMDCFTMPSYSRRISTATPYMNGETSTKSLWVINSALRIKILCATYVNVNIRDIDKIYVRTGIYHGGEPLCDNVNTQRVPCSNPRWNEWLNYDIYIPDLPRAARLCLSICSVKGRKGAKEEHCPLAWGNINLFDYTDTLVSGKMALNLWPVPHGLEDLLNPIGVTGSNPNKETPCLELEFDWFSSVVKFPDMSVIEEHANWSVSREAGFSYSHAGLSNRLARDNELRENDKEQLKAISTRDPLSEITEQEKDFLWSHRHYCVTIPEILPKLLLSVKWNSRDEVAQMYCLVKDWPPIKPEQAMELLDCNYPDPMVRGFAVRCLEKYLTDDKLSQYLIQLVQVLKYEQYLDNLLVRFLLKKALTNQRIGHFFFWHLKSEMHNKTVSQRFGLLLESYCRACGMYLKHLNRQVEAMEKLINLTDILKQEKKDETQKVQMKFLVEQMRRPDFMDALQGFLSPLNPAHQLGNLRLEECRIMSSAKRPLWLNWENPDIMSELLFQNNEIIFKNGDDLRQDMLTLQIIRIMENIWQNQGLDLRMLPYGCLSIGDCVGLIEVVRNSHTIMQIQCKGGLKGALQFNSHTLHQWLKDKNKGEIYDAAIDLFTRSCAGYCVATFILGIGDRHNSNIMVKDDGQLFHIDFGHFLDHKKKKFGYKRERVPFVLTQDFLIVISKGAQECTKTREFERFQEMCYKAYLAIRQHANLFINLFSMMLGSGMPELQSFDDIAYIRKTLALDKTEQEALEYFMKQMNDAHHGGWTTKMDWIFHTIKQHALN
T1 sequence (P27986 whole entry partner): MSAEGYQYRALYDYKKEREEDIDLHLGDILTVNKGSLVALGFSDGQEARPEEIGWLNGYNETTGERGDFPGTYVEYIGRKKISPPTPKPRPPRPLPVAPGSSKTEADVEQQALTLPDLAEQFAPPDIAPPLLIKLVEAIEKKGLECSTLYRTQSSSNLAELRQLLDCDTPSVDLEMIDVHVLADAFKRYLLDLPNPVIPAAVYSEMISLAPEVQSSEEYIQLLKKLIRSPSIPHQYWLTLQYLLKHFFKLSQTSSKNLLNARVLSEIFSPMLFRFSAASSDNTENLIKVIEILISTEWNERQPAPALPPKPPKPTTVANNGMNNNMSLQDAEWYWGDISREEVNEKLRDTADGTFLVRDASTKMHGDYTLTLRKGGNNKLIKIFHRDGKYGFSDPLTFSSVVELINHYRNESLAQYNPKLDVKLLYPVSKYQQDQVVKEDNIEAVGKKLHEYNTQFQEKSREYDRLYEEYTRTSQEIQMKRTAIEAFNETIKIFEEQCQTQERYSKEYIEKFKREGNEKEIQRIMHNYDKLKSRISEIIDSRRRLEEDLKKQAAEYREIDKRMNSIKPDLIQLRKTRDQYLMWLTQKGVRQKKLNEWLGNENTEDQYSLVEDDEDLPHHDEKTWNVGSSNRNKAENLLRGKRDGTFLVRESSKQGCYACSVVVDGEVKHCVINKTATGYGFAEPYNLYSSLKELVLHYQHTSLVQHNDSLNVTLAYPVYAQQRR

Row | IC50 (MCF-7 cells; Table 1) [µM] | inhibition at 0.001 µM (PI3Kα; Table 1) [%] | IC50 (HCT-116 cells; Table 1, 72 h) [µM] | IC50 (MCF-7 cells; Table 3) [µM] | inhibition at 0.001 µM (PI3Kα; Table 3) [%] | IC50 (HCT-116 cells; Table 3, 72 h) [µM] | IC50 (MCF-7 cells; Table 2) [µM] | inhibition at 0.001 µM (PI3Kα; Table 2) [%] | IC50 (HCT-116 cells; Table 2, 72 h) [µM] | SMILES | also measured
1 | 0.53 ± 0.16 | 44 | 0.22 ± 0.08 | – | – | – | – | – | – | COc1ncc(-c2ccc3c(c2)sc2c(NC(C)C)ncnc23)cc1NS(=O)(=O)c1ccc(F)cc1F [11g, N-(5-(4-(isopropylamino)benzo[4,5]thieno[3,2-d]pyrimidin-7-yl)-2-methoxypyridin-3-yl)-2,4-difluorobenzenesulfonamide] | –
2 | > 1 | 10 | > 1 | – | – | – | – | – | – | COc1ncc(-c2ccc3c(c2)sc2c(N4CCC(C)CC4)ncnc23)cc1NS(=O)(=O)c1ccc(F)cc1F [11b, N-(2-methoxy-5-(4-(4-methylpiperidin-1-yl)benzo[4,5]thieno[3,2-d]pyrimidin-7-yl)pyridin-3-yl) 2,4-difluorobenzenesulfonamide] | –
3 | – | – | – | > 1 | 22 | > 1 | – | – | – | COc1ccc(CCNC(=O)c2cnc(-c3ccnc4ccc(-c5cnc(OC)c(NS(=O)(=O)c6ccc(F)cc6F)c5)cc34)o2)cc1 [22k, 2-(6-(5-((2,4-difluorophenyl)sulfonamido)-6-methoxypyridin-3-yl)quinolin-4-yl)-N-(4-methoxyphenethyl)oxazole-5-carboxamide] | –
4 | – | – | – | 0.39 ± 0.08 | 74 | 0.15 ± 0.04 | – | – | – | CNC(=O)c1cnc(-c2ccnc3ccc(-c4cnc(OC)c(NS(=O)(=O)c5ccc(F)cc5F)c4)cc23)o1 [22b, 2-(6-(5-((2,4-difluorophenyl)sulfonamido)-6-methoxypyridin-3-yl)quinolin-4-yl)-N-methyloxazole-5-carboxamide] | –
5 | – | – | – | 1 ± 0.3 | 33 | 0.77 ± 0.19 | – | – | – | COc1ncc(-c2ccc3nccc(-c4ncc(C(=O)NCC5CCCCC5)o4)c3c2)cc1NS(=O)(=O)c1ccc(F)cc1F [22i, N-(cyclohexylmethyl)-2-(6-(5-((2,4-difluorophenyl)sulfonamido)-6-methoxypyridin-3-yl)quinolin-4-yl)oxazole-5-carboxamide] | –
6 | 0.7 ± 0.21 | 12 | 0.56 ± 0.1 | – | – | – | – | – | – | COc1ncc(-c2ccc3c(c2)sc2c(NCCN(C)C)ncnc23)cc1NS(=O)(=O)c1ccc(F)cc1F [11h, N-(5-(4-((2-(dimethylamino)ethyl)amino)benzo[4,5]thieno[3,2-d]pyrimidin-7-yl)-2-methoxypyridin-3-yl)-2,4-difluorobenzenesulfonamide] | –
7 | 0.69 ± 0.25 | 10 | 0.77 ± 0.21 | – | – | – | – | – | – | COc1ncc(-c2ccc3c(c2)sc2c(NCCN)ncnc23)cc1NS(=O)(=O)c1ccc(F)cc1F [11f, N-(5-(4-((2-aminoethyl)amino)benzo[4,5]thieno[3,2-d]pyrimidin-7-yl)-2-methoxypyridin-3-yl)-2,4-difluorobenzenesulfonamide] | –
8 | – | – | – | – | – | – | 0.75 ± 0.25 | 24 | 0.42 ± 0.12 | COCCNc1ncnc2ncc(-c3cnc(OC)c(NS(=O)(=O)c4ccc(F)cc4F)c3)cc12 [17j, N-(2-methoxy-5-(4-((2-methoxyethyl)amino)pyrido[2,3-d]pyrimidin-6-yl)pyridin-3-yl)-2,4-difluorobenzenesulfonamide] | –
9 | 0.86 ± 0.12 | 18 | > 1 | – | – | – | – | – | – | COCCOc1ncnc2c1sc1cc(-c3cnc(OC)c(NS(=O)(=O)c4ccc(F)cc4F)c3)ccc12 [11l, N-(2-methoxy-5-(4-(2-methoxyethoxy)benzo[4,5]thieno[3,2-d]pyrimidin-7-yl)pyridin-3-yl)-2,4-difluorobenzenesulfonamide] | –
10 | 0.51 ± 0.11 | 40 | 0.19 ± 0.12 | – | – | – | – | – | – | COc1ncc(-c2ccc3c(c2)sc2c(NC4CC4)ncnc23)cc1NS(=O)(=O)c1ccc(F)cc1F [11d, N-(5-(4-(cyclopropylamino)benzo[4,5]thieno[3,2-d]pyrimidin-7-yl)-2-methoxypyridin-3-yl)-2,4-difluorobenzenesulfonamide] | –
11 | 0.85 ± 0.37 | 29 | 0.59 ± 0.18 | – | – | – | – | – | – | COc1ncc(-c2ccc3c(c2)sc2c(NCCO)ncnc23)cc1NS(=O)(=O)c1ccc(F)cc1F [11c, N-(5-(4-((2-hydroxyethyl)amino)benzo[4,5]thieno[3,2-d]pyrimidin-7-yl)-2-methoxypyridin-3-yl) -2,4-difluoro-benzenesulfonamide] | –
12 | – | – | – | – | – | – | > 1 | 21 | 0.83 ± 0.25 | CCCCNc1ncnc2ncc(-c3cnc(OC)c(NS(=O)(=O)c4ccc(F)cc4F)c3)cc12 [17c, N-(5-(4-(butylamino)pyrido[2,3-d]pyrimidin-6-yl)-2-methoxypyridin-3-yl)-2,4-difluorobenzenesulfonamide] | –
13 | – | – | – | – | – | – | 0.93 ± 0.48 | 24 | 0.69 ± 0.12 | COc1ncc(-c2cnc3ncnc(NCCO)c3c2)cc1NS(=O)(=O)c1ccc(F)cc1F [17h, N-(5-(4-((2-hydroxyethyl)amino)pyrido[2,3-d]pyrimidin-6-yl)-2-methoxypyridin-3-yl)-2,4-difluorobenzenesulfonamide] | –
14 | – | – | – | – | – | – | 0.92 ± 0.41 | 36 | 0.64 ± 0.2 | COc1ncc(-c2cnc3ncnc(N4CCOCC4)c3c2)cc1NS(=O)(=O)c1ccc(F)cc1F [17e, N-(2-methoxy-5-(4-morpholinopyrido[2,3-d]pyrimidin-6-yl)pyridin-3-yl)2,4-difluorobenzenesulfonamide] | –
15 | – | – | – | 0.45 ± 0.09 | 55 | 0.32 ± 0.09 | – | – | – | CCCCNC(=O)c1cnc(-c2ccnc3ccc(-c4cnc(OC)c(NS(=O)(=O)c5ccc(F)cc5F)c4)cc23)o1 [22g, N-butyl-2-(6-(5-((2,4-difluorophenyl)sulfonamido)-6-methoxypyridin-3-yl)quinolin-4-yl)oxazole-5-carboxamide] | –
16 | – | – | – | – | – | – | 0.63 ± 0.12 | 25 | 0.47 ± 0.17 | COc1ncc(-c2cnc3ncnc(NCC4CC4)c3c2)cc1NS(=O)(=O)c1ccc(F)cc1F [17l, N-(5-(4-((cyclopropylmethyl)amino)pyrido[2,3-d]pyrimidin-6-yl)-2-methoxypyridin-3-yl)-2,4-difluorobenzenesulfonamide] | –
17 | – | – | – | > 1 | 18 | > 1 | – | – | – | COc1ncc(-c2ccc3nccc(-c4ncc(C(=O)NC5CCCCC5)o4)c3c2)cc1NS(=O)(=O)c1ccc(F)cc1F [22j, N-cyclohexyl-2-(6-(5-((2,4-difluorophenyl)sulfonamido)-6-methoxypyridin-3-yl)quinolin-4-yl)oxazole-5-carboxamide] | –
18 | – | – | – | – | – | – | > 1 | 11 | > 1 | COc1ncc(-c2cnc3ncnc(NCCN4CCOCC4)c3c2)cc1NS(=O)(=O)c1ccc(F)cc1F [17g, N-(2-methoxy-5-(4-((2-morpholinoethyl)amino)pyrido[2,3-d]pyrimidin-6-yl)pyridin-3-yl) -2,4-difluorobenzenesulfonamide] | –
19 | – | – | – | 0.46 ± 0.11 | 82 | 0.1 ± 0.06 | – | – | – | COc1ncc(-c2ccc3nccc(-c4ncc(C(=O)NC5CC5)o4)c3c2)cc1NS(=O)(=O)c1ccc(F)cc1F [22d, N-cyclopropyl-2-(6-(5-((2,4-difluorophenyl)sulfonamido)-6-methoxypyridin-3-yl)quinolin-4-yl)oxazole-5-carboxamide] | IC50 (PI3Kα): 0.22 nM
20 | – | – | – | – | – | – | > 1 | 22 | > 1 | COc1ncc(-c2cnc3ncnc(NCC4CCCCC4)c3c2)cc1NS(=O)(=O)c1ccc(F)cc1F [17k, N-(5-(4-((cyclohexylmethyl)amino)pyrido[2,3-d]pyrimidin-6-yl)-2-methoxypyridin-3-yl)-2,4-difluorobenzenesulfonamide] | –
21 | – | – | – | – | – | – | 0.73 ± 0.19 | 31 | 0.52 ± 0.23 | COc1ncc(-c2cnc3ncnc(NCCN(C)C)c3c2)cc1NS(=O)(=O)c1ccc(F)cc1F [17d, N-(5-(4-((2-(dimethylamino)ethyl)amino)pyrido[2,3-d]pyrimidin-6-yl)-2-methoxypyridin-3-yl)-2,4-difluorobenzenesulfonamide] | –
22 | 0.69 ± 0.11 | 13 | 0.25 ± 0.08 | – | – | – | – | – | – | COc1ncc(-c2ccc3c(c2)sc2c(OCCN(C)C)ncnc23)cc1NS(=O)(=O)c1ccc(F)cc1F [11k, N-(5-(4-(2-(dimethylamino)ethoxy)benzo[4,5]thieno[3,2-d]pyrimidin-7-yl)-2-methoxypyridin-3-yl)-2,4-difluorobenzenesulfonamide] | –
23 | – | – | – | 0.29 ± 0.1 | 78 | 0.06 ± 0.02 | – | – | – | COCCCNC(=O)c1cnc(-c2ccnc3ccc(-c4cnc(OC)c(NS(=O)(=O)c5ccc(F)cc5F)c4)cc23)o1 [22f, 2-(6-(5-((2,4-difluorophenyl)sulfonamido)-6-methoxypyridin-3-yl)quinolin-4-yl)-N-(3-methoxypropyl)oxazole-5-carboxamide] | IC50 (PI3Kα): 0.38 nM
